Results reported in patent EP0024776A1, “4-Phenyl and 5-phenyl-1,4,5,6-tetrahydropyrimidine derivatives, pharmaceutical compositions containing said derivatives, and process for preparing said derivatives” (SYNTEX (U.S.A.) INC., priority 1979, dated 1981).

Key:
[1] = Acute intraperitoneal toxicity and behavior in mice (Example 14); conditions: mouse, in vivo, ip
male mice (ICR-Simonsen) = assay: as above; conditions: for No. of Deaths: 5 mice
[2] = tested on: reserpine-induced hypothermia; assay: Reversal of reserpine-induced hypothermia in mice (potential antidepressant activity); assay type: in vivo; conditions: Mus musculus, po; minimum effective dose, p.o., statistically significant reversal of hypothermia induced by reserpine 5mg/kg i.p.; body temperature 1-4 hours post-drug; read-out: MED
Method: REVERSAL OF RESERPINE-INDUCED HYPOTHERMIA IN MICE
The assay was used to evaluate the potential antidepressant activity of compounds of this invention.
Male Swiss-Webster Institute for Cancer Research mice weighing 18-24g were utilized for these experiments. The mice, having been in holding quarters for a minimum of 5 days, were placed in plexi-glass cages 17cm by 20cm with sanicel bedding. Five of the 6 groups of 10 mice each, received reserpine, 5mg/kg, i.p. The reserpine (lOmg) was dissolved in 0.06ml glacial acetic acid and 20ml water. The sixth group was not pretreated. Two hours later the mice were dosed with either water or test compound at various doses. The group which had not received the reserpine pretreatment was also dosed with water; consequently a postive and a negative control group were present. The test compounds were administered orally (p.o.) in logarithmically spaced doses.
One hour after the oral dosing, body temperatures were taken from 8 mice from each group utilizing a Yellow Springs-Telethermometer unit. Repeated determinations of body temperature occured at 2, 3 and 4 hours post-drug.
The percent reversal of the reserpine-induced hypothermia was determined according to the formula: [formula] and subjected to an analysis of variance (X = average body temperature of mice from the group). Statistically significant reversal of the reserpine-induced hypothermia was used as a criterion for determining the minimum effective dose (MED) of the compound.

tonic extensor seizure = assay: Anticonvulsant activity - maximal electroshock test; assay type: in vivo, mice; conditions: Mus musculus, ip, 0.25 h; i.p. fifteen minutes prior to transcorneal electroshock (50 mamp. 0.2sec); antagonism of tonic extensor seizure
Method: ANTICONVULSANT ACTIVITY - MAXIMAL ELECTROSHOCK TEST This assay was used to evaluate the anticonvulsant activity of compounds of this invention. Groups of 10 male Hilltop ICR mice were utilized for these experiments. At fifteen minutes prior to testing, drug or vehicle was administered intraperitoneally (i.p.). At the appropriate time the mice were subjected to a transcorneal electroshock generated by a stimulator (Woodbury, L.A. and Davenport, V.D.: Design and Use Of A New Electroshock Seizure Apparatus And Analysis Of Factors Altering Seizure Threshold And Pattern. Arch. Intern. Pharmacodyn. Ther. 92: 97-107,1952). The shock (50 […]) elicited three types of seizures: tonic extension, tonic flexion and clonic seizures. For the purposes of this test, the antagonism of the tonic extensor seizure was utilized as an endpoint. The quantal data accumulated from several doses of a test compound were utilized to determine an ED50 (Litchfield, J.F. and Wilcoxon, F.: A Simplified Method of Evaluating Dose-effect Experiments). J. Pharmacol. Exp. Ther. 96: 99-113, 1949).

jaw opening reflex = assay: Centrally acting skeletal muscle relaxant assay - cat linguomandibular reflex preparation; assay type: in vivo; conditions: Felis catus, iv, anesthetized cats; percent reduction of the jaw opening reflex
Method: This assay is used to assess the centrally acting skeletal muscle relaxant properties of compounds of this invention.
Mongrel cats weighing 2-Skg were anesthetized with phenobarbital sodium, 180mg/kg, i.p. The anesthetized cat was placed in a stereotaxic headholder, shaved, and the femoral artery and vein were cannulated. The cannula from the fermoral artery was connected to a Statham Model P-23 AC Transducer in order to monitor blood pressure. The femoral vein was utilized for the administration of drugs.
The cat was placed in a prone position and two electrodes, consisting of wound clips soldered to wires, were attached bilaterally to the base of the tongue. These leads were then connected to a Grass S8 stimulator. A Grass FT-03 Transducer was placed beneath the jaw. […] Signals from the transducers were recorded on a Beckman Polygraph.
The stimulator was set to deliver single pulses of 2.5msec duration. […] Once the response had ben determined to be stable, drug solution was administered i.v. in logarithmically spaced doses. […]
The percent reduction of the jaw opening reflex was utilized for determining the activity of the drug. Comparisons of the relative block of the reflex, the steepness of the dose response curve, and the cardiovascular sequel were evaluated and an ED50 determined.

Compound	minimal effective dose [2] [mg/kg]	also measured
COC(=O)NC1=NCC(c2ccccc2)CN1.O=C(O)/C=C\C(=O)O (centres unmarked) [2-Methoxycarbonylamino-5-phenyl-1,4,5,6-tetrahydropyrimidine, maleate]		LD50 [1]: 26.5 mg/kg; No. of Deaths (male mice (ICR-Simonsen); Dose 10 mg/kg i.p.): 0; No. of Deaths (male mice (ICR-Simonsen); Dose 15 mg/kg i.p.): 0; No. of Deaths (male mice (ICR-Simonsen); Dose 20 mg/kg i.p.): 0; No. of Deaths (male mice (ICR-Simonsen); Dose 25 mg/kg i.p.): 0; No. of Deaths (male mice (ICR-Simonsen); Dose 27.5 mg/kg i.p.): 4; No. of Deaths (male mice (ICR-Simonsen); Dose 30 mg/kg i.p.): 5; onset of effects (male mice (ICR-Simonsen); after drug administration, i.p., mice): less than five minutes; surviving animals appeared normal (male mice (ICR-Simonsen); after drug, i.p., mice): 90 to 120 min; Behavioral effects observed (male mice (ICR-Simonsen); i.p., 10-30 mg/kg, observed for 2 hours post drug): decreased motor activity, ataxia exophthalmia piloerection increased induced activity, dysporea (increased depth and decreased rate of respiration), lacrimation twitching, moderate clonic convulsions and death
CCCOC(=O)NC1=NC(c2ccccc2)CCN1 (centres unmarked) [2-n-propoxycarbonylamino-4-phenyl-1,4,5,6-tetrahydropyrimidine]	10	ED50 (tonic extensor seizure): 30 mg/kg
COC(=O)NC1=NC(c2ccccc2C(F)(F)F)CCN1 (centres unmarked) [4|H|2-CF3|H|CH3OC(O)-, 2-methoxycarbonylamino-4-(2-trifluoromethylphenyl)-1,4,5,6-tetrahydropyrimidine]	1	ED50 (tonic extensor seizure): 44 mg/kg
COC(=O)NC1=NC(c2cccc(OC)c2)CCN1 (centres unmarked) [4|H|3-CH3O|H|CH3OC(O)]	10	
COC(=O)NC1=NC(c2ccc(F)cc2)CCN1 (centres unmarked) [4|H|4-F|H|CH3COC(O)-, 2-methoxycarbonylamino-4-(4-fluorophenyl)-1,4,5,6-tetrahydropyrimidine]	1	
COC(=O)NC1=NC(c2ccccc2)CCN1 (centres unmarked) [4|H|H|H|CH3OC(O)-, 2-methoxycarbonylamino-4-phenyl-1,4,5,6-tetrahydropyrimidine]	2.5	
NC1=NC(c2ccccc2)CCN1 (centres unmarked) [4|H|H|H|H, 2-amino-4-phenyl-1,4,5,6-tetrahydropyrimidine]	10	
COC(=O)NC1=NCC(c2ccc(Cl)cc2Cl)CN1 (centres unmarked) [5|2-Cl|4-Cl|H|CH3OC(O)-, 2-methoxycarbonylamino-5-(2,4-dichlorophenyl)-1,4,5,6-tetrahydropyrimidine]	1	ED50 (jaw opening reflex): 25 mg/kg
CC(C)OC(=O)NC1=NCC(c2c(Cl)cccc2Cl)CN1 (centres unmarked) [5|2-Cl|6-Cl|H|(CH3)2CHOC(O)-, 2-i-propoxycarbonylamino-5-(2,6-dichlorophenyl)-1,4,5,6-tetrahydropyrimidine]	1	
COC(=O)NC1=NCC(c2c(Cl)cccc2Cl)CN1 (centres unmarked) [5|2-Cl|6-Cl|H|CH3OC(O)-, 2-methoxycarbonylamino-5-(2,6-dichlorophenyl)-1,4,5,6-tetrahydropyrimidine]	0.15	
COC(=O)NC1=NCC(c2ccccc2Cl)CN1 (centres unmarked) [5|H|2-Cl|H|CH3OC(O)-, 2-methoxycarbonylamino-5-(2-chlorophenyl)-1,4,5,6-tetrahydropyrimidine]	10	ED50 (tonic extensor seizure): 42 mg/kg
CCCOC(=O)NC1=NCC(c2cccc(Br)c2)CN1 (centres unmarked) [5|H|3-Br|H|CH3(CH)2OC(O)-, 2-n-propoxycarbonylamino-5-(3-bromophenyl)-1,4,5,6-tetrahydropyrimidine]	1	
COC(=O)NC1=NCC(c2cccc(Br)c2)CN1 (centres unmarked) [5|H|3-Br|H|CH3OC(O)-, 2-methoxycarbonylamino-5-(3-bromophenyl)-1,4,5,6-tetrahydropyrimidine]	1	
NC1=NCC(c2cccc(Br)c2)CN1 (centres unmarked) [5|H|3-Br|H|H-, 2-amino-5-(3-bromophenyl)-1,4,5,6-tetrahydropyrimidine]	10	ED50 (tonic extensor seizure): 47 mg/kg
COC(=O)NC1=NCC(c2cccc(OC)c2)CN1 (centres unmarked) [5|H|3-MeO|H|CH3OC(O)-, 2-methoxycarbonylamino-5-(3-methoxyphenyl)-1,4,5,6-tetrahydropyrimidine]	10	ED50 (jaw opening reflex): 7 mg/kg
COC(=O)NC1=NCC(c2ccc(C(C)C)cc2)CN1 (centres unmarked) [5|H|4-(CH3)2CH-|H|CH3OC(O), 2-methoxycarbonylamino-5-(4-isopropylphenyl)-1,4,5,6-tetrahydropyrimidine]		ED50 (tonic extensor seizure): 55 mg/kg
COC(=O)NC1=NCC(c2ccc(F)cc2)CN1 (centres unmarked) [5|H|4-F|H|CH3OC(O)-, 2-methoxycarbonylamino-5-(4-fluorophenyl)-1,4,5,6-tetrahydropyrimidine]	0.15	ED50 (tonic extensor seizure): 100 mg/kg
COC(=O)NC1=NCC(c2ccccc2)CN1C (stereo not drawn) [5|H|H|CH3|CH3OC(O)-, l-Methyl-2-methoxycarbonylamino-5-phenyl-1,4,5,6-tetrahydropyrimidine]	0.04	
CC(C)OC(=O)NC1=NCC(c2ccccc2)CN1 (centres unmarked) [5|H|H|H|(CH3)2CHOC(O)-, 2-isopropoxycarbonylamino-5-phenyl-1,4,5,6-tetrahydropyrimidine]	0.04	
CCOC(=O)NC1=NCC(c2ccccc2)CN1 (centres unmarked) [5|H|H|H|CH3CH2OC(O)-, 2-ethoxycarbonylamino-5-phenyl-1,4,5,6-tetrahydropyrimidine]	0.04	
COC(=O)NC1=NCC(c2ccccc2)CN1 (centres unmarked) [5|H|H|H|CH3OC(O)-, 2-methoxycarbonylamino-5-phenyl-1,4,5,6-tetrahydropyrimidine]	0.0006	
NC1=NCC(c2ccccc2)CN1 (centres unmarked) [5|H|H|H|H, 2-amino-5-phenyl-1,4,5,6-tetrahydropyrimidine]	0.01	
